# Results published in US9328106B2, “Cyclic ether pyrazol-4-yl-heterocyclyl-carboxamide compounds and methods of use” (Genentech, Inc., priority 2012, dated 2016).
# Like-named read-outs stand apart in the source and are kept apart here.
# What was measured:
# [1] = tested on: MM1.S (multiple myeloma) cells; assay: In vitro cell proliferation, MM1.S multiple myeloma cells; assay type: cell-based; conditions: MM1.S cells, 72 hours, CELL TITER GLO, read-out: Prolif MM1S ATP (EC50);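 further: cells cultured in RPMI with 10% FBS and 2 mM L-Glutamine, seeded in 384-well plates, exposed to compound, cell viability measured by luminescence after CellTiter-Glo addition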
# Protocol: (§1) BaF3 parental line was obtained from the DSMZ repository. […] Media for BaF3 parental line contained RPMI, 10% FBS, 2 mM L-Glutamine, 2 ng/mL mIL-3. Media for BaF3 PIM1 & 2 lines contained RPMI, 10% FBS, 2 mM L-Glutamine, 250 μg/mL. Media for MM1.S (multiple myeloma cells) line contained RPMI, 10% FBS, 2 mM L-Glutamine.
# (§2) BaF3, a murine interleukin-3 dependent pro-B cell line, parental cells, BaF3 PIM1 cells, BaF3 PIM2 cells, and MM1.S (multiple myeloma) cells were seeded at 2 k/well, 5 k/well, 5 k/well, and 10 k/well respectively, in a 384-well plate, at 45 μL/well. Test compound was added at 5 μL/well. BaF3 cells (parental and transfected) were incubated overnight, while MM1.S cells were incubated for 72 hours at 37° C., 5% CO2. CELL TITER GLO® Reagent (Promega) was added at 50 μL/well, the plates were incubated for 30 minutes, and their luminescence read on an HT Analyst. IC50/EC50 values for the test compound were calculated.
# [2] = tested on: BaF3 parental cells; assay: In vitro cell proliferation, BaF3 parental line + IL3; assay type: cell-based, murine; conditions: mIL-3, incubated overnight, CELL TITER GLO, read-out: Prolif BaF3 IL3 (IC50);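 further: BaF3 parental cells are murine IL-3 dependent pro-B cells grown with 2 ng/mL mIL-3, 384-well format, viability read by luminescence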
# [3] = tested on: BaF3 PIM1 cells; assay: In vitro cell proliferation, BaF3 transfected with PIM1; assay type: cell-based, murine;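 further: murine IL-3-dependent pro-B BaF3 cells transfected with PIM1, compound exposure overnight at 37 °C under 5% CO2, viability read as luminescence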
# Protocol: as §1, §2
# [4] = molecular target: PIM1 (Homo sapiens (Human), UniProt P11309); assay: biochemical; assay type: biochemical; conditions: 20 pM PIM1, 1 μM FAM-peptide, 10 μM ATP, 90 minutes at room temperature; read-out: PIM1 LC3K (KI)
# Chain of PIM1 (P11309 whole entry): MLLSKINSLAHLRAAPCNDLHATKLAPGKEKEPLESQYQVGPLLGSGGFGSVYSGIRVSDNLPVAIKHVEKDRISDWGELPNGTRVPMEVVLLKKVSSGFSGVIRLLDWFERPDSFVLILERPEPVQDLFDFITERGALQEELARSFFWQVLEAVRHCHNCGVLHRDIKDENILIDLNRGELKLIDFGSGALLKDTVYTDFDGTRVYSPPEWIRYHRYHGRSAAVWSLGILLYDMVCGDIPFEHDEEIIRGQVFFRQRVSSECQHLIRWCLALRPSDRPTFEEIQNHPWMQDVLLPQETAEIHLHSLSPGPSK
# [5] = Mus musculus, BaF3, BaF3 parental
# [6] = Mus musculus, BaF3, read-out: Prolif BaF3 PIM1 (IC50), BaF3 PIM1 cells, incubated overnight, CELL TITER GLO
Structure (SMILES),"EC50 ([1]; Homo sapiens, MM1.S, 72 h) [nM]","IC50 [2, 5] [nM]","IC50 [3, 6] [nM]",Ki [4] [nM],EC50 [1] [nM],IC50 ([2]; BaF3 parental) [nM],"IC50 ([3]; read-out: Prolif BaF3 PIM1 (IC50), BaF3 PIM1 cells, incubated overnight, CELL TITER GLO) [nM]","IC50 ([3]; Mus musculus, BaF3 PIM1 cells, incubated overnight, CELL TITER GLO, read-out: Prolif BaF3 PIM1 (IC50)) [nM]"
"Cn1ncc(NC(=O)c2csc(-c3c(F)ccc(C(F)F)c3F)n2)c1[C@@H]1CC[C@@H](N)[C@H](F)CO1 [Example 377, N-[5-[(2S,5R,6S)-5-amino-6-fluoro-oxepan-2-yl]-1-methyl-pyrazol-4-yl]-2-[3-(difluoromethyl)-2,6-difluoro-phenyl]thiazole-4-carboxamide]",4200,9900,68.6,0.031,,,,
"C[C@H]1O[C@@H](c2c(NC(=O)c3csc(-c4c(F)cccc4F)n3)cnn2C)C[C@@H](N)[C@]1(C)O (single isomer, unassigned) [Example 341]",6900,> 25000,96.8,0.003,,,,
"COc1ccc(F)c(-c2nc(C(=O)Nc3cnn(C)c3[C@@H]3CC[C@@H](N)[C@H](OC)CO3)cs2)c1F [Example 368, N-(5-((2S,5R,6S)-5-amino-6-methoxyoxepan-2-yl)-1-methyl-1H-pyrazol-4-yl)-2-(2,6-difluoro-3-methoxyphenyl)thiazole-4-carboxamide]",2400,1900,100,0.03,,,,
"Cn1ncc(NC(=O)c2csc(-c3cc(=O)n(C)cc3F)n2)c1[C@@H]1CC[C@@H](N)[C@H](F)CO1 [Example 387, N-(5-((2S,5R,6S)-5-amino-6-fluorooxepan-2-yl)-1-methyl-1H-pyrazol-4-yl)-2-(5-fluoro-1-methyl-2-oxo-1,2-dihydropyridin-4-yl)thiazole-4-carboxamide]",2000,8200,3200,0.954,,,,
"CO[C@@H]1CO[C@H](c2c(NC(=O)c3csc(-c4c(F)cccc4F)n3)cnn2C)CC[C@H]1N [Example 347, N-(5-((2S,5R,6S)-5-amino-6-methoxyoxepan-2-yl)-1-methyl-1H-pyrazol-4-yl)-2-(2,6-difluorophenyl)thiazole-4-carboxamide]",3300,5000,157,0.014,,,,
"C[C@@H]1O[C@@H](c2c(NC(=O)c3csc(-c4c(F)cccc4F)n3)cnn2C)C[C@H](N)[C@@]1(C)O (single isomer, unassigned) [Example 342]",21600,10000,12700,2.3,,,,
"Cn1ncc(NC(=O)c2ccc(F)c(-c3ccc(Cl)cc3F)n2)c1[C@@H]1CC[C@@H](N)[C@H](F)CO1 [Example 359, N-(5-((2S,5R,6S)-5-amino-6-fluorooxepan-2-yl)-1-methyl-1H-pyrazol-4-yl)-6-(4-chloro-2-fluorophenyl)-5-fluoropicolinamide]",5800,11600,262,0.007,,,,
"CC[C@@H]1CC(N)CC[C@H](c2c(NC(=O)c3nc(-c4c(F)cccc4F)sc3N)cnn2C)O1 (stereo partly drawn) [Example 112, 5-amino-N-(5-((2R,7R)-5-amino-7-ethyloxepan-2-yl)-1-methyl-1H-pyrazol-4-yl)-2-(2,6-difluorophenyl)thiazole-4-carboxamide]",8500,6900,2100,0.502,,,,
"Cn1ncc(NC(=O)c2csc(-c3n[nH]c4c3CCC(C)(C)C4)n2)c1[C@@H]1CC[C@@H](N)[C@H](F)CO1 [Example 373, N-(5-((2S,5R,6S)-5-amino-6-fluorooxepan-2-yl)-1-methyl-1H-pyrazol-4-yl)-2-(6,6-dimethyl-4,5,6,7-tetrahydro-1H-indazol-3-yl)thiazole-4-carboxamide]",3400,8600,101,0.009,,,,
"Cn1ncc(NC(=O)c2csc(-c3c(F)cc([C@H]4CCCO4)cc3F)n2)c1[C@@H]1CC[C@@H](N)[C@H](F)CO1 (single isomer, unassigned) [Example 380]",1700,12200,37.2,0.071,,,,
"Cn1ncc(NC(=O)c2csc(-c3cc[nH]n3)n2)c1[C@@H]1CC[C@@H](N)[C@H](F)CO1 [Example 379, N-[5-[(2S,5R,6S)-5-amino-6-fluoro-oxepan-2-yl]-1-methyl-pyrazol-4-yl]-2-(1H-pyrazol-3-yl)thiazole-4-carboxamide]",2900,> 25000,980,0.129,,,,
"Cn1ncc(NC(=O)c2nc(-c3c(F)cccc3F)sc2N)c1C12CCC(O)C(CC1)O2 (single isomer, unassigned) [Example 110, 5-amino-2-(2,6-difluorophenyl)-N-[5-(2-hydroxy-8-oxabicyclo[3.2.1]octan-5-yl)-1-methyl-pyrazol-4-yl]thiazole-4-carboxamide]",,,,0.017,2400,9400,44.8,
"CN(C)c1ccc(-c2nc(C(=O)Nc3cnn(C)c3[C@@H]3CC[C@@H](N)[C@H](F)CO3)cs2)cn1 [Example 385, N-[5-[(2S,5R,6S)-5-amino-6-fluoro-oxepan-2-yl]-1-methyl-pyrazol-4-yl]-2-[6-(dimethylamino)-3-pyridyl]thiazole-4-carboxamide]",1200,12000,118,0.2,,,,
"Cn1ncc(NC(=O)c2nc(-c3c(F)cccc3F)sc2N)c1C1CC[C@@H](N)[C@@H](F)CO1 (stereo partly drawn) [Example 129, 5-amino-N-(5-((5R,6R)-5-amino-6-fluorooxepan-2-yl)-1-methyl-1H-pyrazol-4-yl)-2-(2,6-difluorophenyl)thiazole-4-carboxamide]",109,6900,24.7,0.006,,,,
"C[C@@H](O)c1ccc(-c2nc(C(=O)Nc3cnn(C)c3[C@@H]3CC[C@@H](N)[C@H](F)CO3)cs2)c(F)c1F (single isomer, unassigned) [Example 366]",1700,10300,302,0.14,,,,
"Cn1ncc(NC(=O)c2nc(-c3ccccc3C(F)(F)F)sc2N)c1[C@@H]1CC[C@@H](N)[C@H](F)CO1 [Example 323, 5-amino-N-(5-((2S,5R,6S)-5-amino-6-fluorooxepan-2-yl)-1-methyl-1H-pyrazol-4-yl)-2-(2-(trifluoromethyl)phenyl)thiazole-4-carboxamide]",10000,> 25000,186,0.283,,,,
"Cn1ncc(NC(=O)c2nc(-c3c(F)cccc3Cl)sc2N)c1[C@@H]1CC[C@@H](N)[C@H](F)CO1 [Example 328, 5-amino-N-(5-((2S,5R,6S)-5-amino-6-fluorooxepan-2-yl)-1-methyl-1H-pyrazol-4-yl)-2-(2-chloro-6-fluorophenyl)thiazole-4-carboxamide]",1500,12500,21.4,0.036,,,,
"Cn1ncc(NC(=O)c2nc(-c3ccccc3F)sc2N)c1[C@@H]1CC[C@@H](N)[C@H](F)CO1 [Example 317, 5-amino-N-(5-((2S,5R,6S)-5-amino-6-fluorooxepan-2-yl)-1-methyl-1H-pyrazol-4-yl)-2-(2-fluorophenyl)thiazole-4-carboxamide]",34.5,7900,15.2,0.00509,,,,
"Cn1ncc(NC(=O)c2csc(-c3cccnc3)n2)c1[C@@H]1CC[C@@H](N)[C@H](F)CO1 [Example 383, N-[5-[(2S,5R,6S)-5-amino-6-fluoro-oxepan-2-yl]-1-methyl-pyrazol-4-yl]-2-(3-pyridyl)thiazole-4-carboxamide]",5700,20800,823,0.991,,,,
"Cn1ncc(NC(=O)c2csc(-c3ccccc3)n2)c1[C@@H]1CC[C@@H](N)[C@H](F)CO1 [Example 327, N-(5-((2S,5R,6S)-5-amino-6-fluorooxepan-2-yl)-1-methyl-1H-pyrazol-4-yl)-2-phenylthiazole-4-carboxamide]",648,16800,176,0.021,,,,
"Cc1[nH]nc(-c2nc(C(=O)Nc3cnn(C)c3[C@@H]3CC[C@@H](N)[C@H](F)CO3)cs2)c1C [Example 372, N-(5-((2S,5R,6S)-5-amino-6-fluorooxepan-2-yl)-1-methyl-1H-pyrazol-4-yl)-2-(4,5-dimethyl-1H-pyrazol-3-yl)thiazole-4-carboxamide]",1600,20500,602,0.064,,,,
"C[C@@H]1O[C@H](c2c(NC(=O)c3nc(-c4c(F)cccc4F)sc3N)cnn2C)C[C@H](N)[C@@]1(C)O [Example 346, 5-amino-N-(5-((2S,4S,5R,6S)-4-amino-5-hydroxy-5,6-dimethyltetrahydro-2H-pyran-2-yl)-1-methyl-1H-pyrazol-4-yl)-2-(2,6-difluorophenyl)thiazole-4-carboxamide]",4300,> 25000,,,,,,517
"Cn1ncc(NC(=O)c2nc(-c3c(Cl)cccc3C(F)(F)F)sc2N)c1[C@@H]1CC[C@@H](N)[C@H](F)CO1 [Example 329, 5-amino-N-(5-((2S,5R,6S)-5-amino-6-fluorooxepan-2-yl)-1-methyl-1H-pyrazol-4-yl)-2-(2-chloro-6-(trifluoromethyl)phenyl)thiazole-4-carboxamide]",1700,2400,348,,,,,
